Data published in PubChem BioAssay (NCI).
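How tested: cells in 96-well plates exposed to compound for 48 hours at five concentrations. TGI: concentration producing complete growth inhibition.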 *1 amine or outer side, *2 acyl side, *3 side chain or, on linkers, in order; H or OH if unused. Where a SMILES comes first, the peptide text is derived from it. [ ]: non-standard residue; d: D form. The star is where a group is joined. X31 = CC(=O)N(C)SCC(N[*:1])C(=O)[*:2]; Cbz = O=C(OCc1ccccc1)*; Bn = c1ccc(C*)cc1; For = O=C*

Tests used:
Experiment in all cases: NCI-60 cell line screen, 48 h
SF-268 CNS = system: SF-268 CNS
MOLT-4 leukemia = system: MOLT-4 leukemia
UACC-257 melanoma = system: UACC-257 melanoma
IGROV1 ovarian = system: IGROV1 ovarian
SF-539 CNS = system: SF-539 CNS
RPMI-8226 leukemia = system: RPMI-8226 leukemia
PC-3 prostate = system: PC-3 prostate
CAKI-1 renal = system: CAKI-1 renal
HOP-92 NSCLC = system: HOP-92 NSCLC
MALME-3M melanoma = system: MALME-3M melanoma
T-47D breast = system: T-47D breast
RXF 393 renal = system: RXF 393 renal
DU-145 prostate = system: DU-145 prostate
SK-MEL-2 melanoma = system: SK-MEL-2 melanoma
OVCAR-5 ovarian = system: OVCAR-5 ovarian
HCT-15 colon = system: HCT-15 colon
SR leukemia = system: SR leukemia
SNB-19 CNS = system: SNB-19 CNS
NCI-H522 lung = system: NCI-H522 lung
OVCAR-4 ovarian = system: OVCAR-4 ovarian

Compound	TGI (SF-268 CNS) [µM]	TGI (MOLT-4 leukemia) [µM]	TGI (UACC-257 melanoma) [µM]	TGI (IGROV1 ovarian) [µM]	TGI (SF-539 CNS) [µM]	TGI (RPMI-8226 leukemia) [µM]	TGI (PC-3 prostate) [µM]	TGI (CAKI-1 renal) [µM]	TGI (HOP-92 NSCLC) [µM]	TGI (MALME-3M melanoma) [µM]	TGI (T-47D breast) [µM]	TGI (RXF 393 renal) [µM]	TGI (DU-145 prostate) [µM]	TGI (SK-MEL-2 melanoma) [µM]	TGI (OVCAR-5 ovarian) [µM]	TGI (HCT-15 colon) [µM]	TGI (SR leukemia) [µM]	TGI (SNB-19 CNS) [µM]	TGI (NCI-H522 lung) [µM]	TGI (OVCAR-4 ovarian) [µM]
Cc1ccc2c(c1)[nH]c(=S)n2/C=C1\C(=O)Oc2ccccc2C1=O	> 100	> 100	> 100	> 100	> 100	> 100	> 100	> 100	71.5	> 100	> 100	> 100	> 100	> 100	> 100	> 100	> 100	> 100	> 100	> 100
COC(=O)C1(CCC(C)=O)CCCCCC1=O (stereo unspecified)	> 100	> 100	> 100	> 100	> 100	> 100	> 100	> 100	> 100	> 100	> 100	> 100	> 100	> 100	> 100	> 100	> 100	> 100	> 100	> 100
O=C(NC1=NCC(CN2CCN(c3ccccc3)CC2)O1)Nc1ccccc1 (stereo unspecified)	> 100	> 100	> 100	> 100		> 100	> 100	> 100	> 100	> 100	> 100	> 100	> 100	> 100	> 100	> 100	> 100	> 100	> 100	> 100
CCOC(=O)/C(C#N)=C\c1ccc(N(CCC(=O)O)CCC(=O)O)c(I)c1	> 10	> 10	> 10	> 10	> 10	> 10	> 10	> 10	> 10	> 10	> 10	> 10	> 10			> 10	> 10	> 10	> 10	> 10
CC(C)Cn1cnc2c(NCC(C)O)nc3ccccc3c21 (stereo unspecified)	> 100	> 100	> 100	> 100	> 100	> 100	> 100	> 100	> 100	> 100	> 100	> 100	> 100	> 100	> 100	> 100	> 100	> 100	> 100	> 100
C=CCN1C(=O)/C(=C/c2ccc(OC)cc2)N=C1SC/C=C/C	> 100	66.7	> 100	> 100	> 100	> 100	> 100	> 100	93.8	> 100	94.2	87	> 100	> 100	> 100	> 100	63.8	> 100	> 100	> 100
CNc1ncnc2c1ncn2C1C=CC(COS(N)(=O)=O)C1 (stereo unspecified)	> 100	> 100	> 100	> 100	> 100	> 100	> 100	> 100	> 100	> 100	> 100	> 100	> 100	> 100		> 100	> 100	> 100	> 100	> 100
O=c1oc2ccc3ccccc3c2cc1-c1cn2ccccc2n1	> 100	> 100	> 100	> 100	> 100	> 100	> 100	75.1	> 100		> 100	> 100	> 100	> 100		> 100	> 100		> 100	
CCOC(CN(C)C(=O)Nc1cccc2ccccc12)OCC	> 10	> 10	> 10	> 10	> 10	> 10	> 10	> 10	> 10	> 10	> 10	> 10	> 10	> 10		> 10	> 10	> 10	> 10	> 10
CC(=O)C(=C(c1ccccc1)c1ccccc1)c1ccccc1	> 100	> 100	> 100		> 100	> 100	> 100		> 100	> 100	> 100	> 100	> 100		> 100	> 100	> 100	> 100	> 100	> 100
Cn1c2ccccc2c2c(-c3ccccc3)cc3c(c21)C(=O)C=CC3=O	> 9.19	1.1	4.62	5.5	4.29	4.8	> 6.39	4.07	3.78	4.17	4.9	3.83	> 10	> 7.25	> 10	5.41	0.817	> 10	2.74	5.75
Cc1cc2c(cc1-c1cc3c(cc1C)C(C(C)C)=C(O)C(=O)/C3=C\Nc1c3ccccc3nc3ccccc13)/C(=C/Nc1c3ccccc3nc3ccccc13)C(=O)C(O)=C2C(C)C	14.7	16	16.6	11.1	16.1	> 100	12.9		21.5	10.1	26.8	20.1	20.6	19.2	16.7	14.9	18.4	13.6	2.97	12.8
C=CCN1C(=O)/C(=C/c2ccco2)N=C1SC/C=C/C	> 100	54.7	> 100	> 100	> 100	76.6	> 100	> 100	> 100	> 100	> 100	96.1	> 100	86.4	> 100	> 100	52.9	> 100	> 100	> 100
NC(N)=N/N=C/c1c(-c2ccc(Cl)cc2)nc2sccn12	3.72	5.08	3.62	4.24	3.36	7.04	3.33	10.9	5.67	4.95	3.22	2.95	13.1	4.31	7.03	6.36	13.2	20.7	3.19	4.24
O=C(ON=C1c2ccccc2C(Br)C(Br)c2ccccc21)c1cc([N+](=O)[O-])cc([N+](=O)[O-])c1 (stereo unspecified)	35.7	45.1	33.2	26.6	32.8	37	> 73.5	47.9	39.8	33	76.7	36.6	66	> 71	43.8	42.7	26.9	56.8	14.3	48.2
CSc1nc(C#N)c(/N=C\N(C)C)n1C	> 100	> 100	> 100	> 100	> 100	> 100	> 100	> 100	> 100	> 100	> 100	> 100	> 100	> 100	> 100	> 100	> 100	> 100	> 100	> 100
COc1ccc(Nc2nnc(-c3nsc4ccccc34)s2)cc1	> 100	> 100	> 100	> 100	> 100	> 100	> 100	> 100	41.8		> 100	> 78.9	> 100	> 100	> 100	> 100	> 100	> 100		6.73
C=CCNC(=O)NC(=O)CSC1=NNC2(C(=O)N1)c1ccccc1-c1ccccc12	> 10	> 10	> 10	> 10	> 10	> 10	> 10	> 10	> 10	> 10	> 10	> 10	> 10		> 10	> 10	> 10	> 10	> 10	> 10
CC(=O)N(C)SCC(NC(=O)C(Cc1ccccc1)NC(=O)OCc1ccccc1)C(=O)NC(Cc1ccccc1)C(=O)NC(Cc1cn(C=O)c2ccccc12)C(=O)NC(CCCCNC(=O)OCc1ccccc1)C(=O)NC(C(=O)NC(CSN(C)C(C)=O)C(=O)NC(C(N)=O)C(C)OCc1ccccc1)C(C)OCc1ccccc1 (stereo unspecified) (Cbz-F[X31]FW(For)K(Cbz)T(Bn)[X31]T(Bn)-NH2; configuration not given here)	> 100	> 100	> 100	> 100	> 100	> 100	> 100		56.6	> 100	> 100	41.9	> 100	28.7	> 100	> 100	> 100	51.7	> 100	> 100
O=C(CC(=O)N(C(=O)/C=C\c1ccccc1)c1ccc(Cl)cc1)N1N=C(c2ccccc2)C(N=Nc2cccc([N+](=O)[O-])c2)C1=O (stereo unspecified)	26.2	24.7		48.6	25.8	93.4	14.4	> 100	> 100	44.5	> 100	36.9	91.8		> 100	21.6	14	> 100		
Nc1ncnn2c(C3OC(CO)C(O)C3O)ccc12 (stereo unspecified)	1.99	0.455	0.417	0.562	0.403	0.467	0.762	0.486	0.431	0.285	6.93	0.667	0.74	0.362	4.54	0.771	0.837	25.4	1.97	0.582
Clc1ccc(NCc2nnc(CCCCCCCCc3nnc(CNc4ccc(Cl)cc4)o3)o2)cc1	> 100	> 100	> 100			> 100	> 100	> 100	> 100	> 100	> 100	> 100	> 100	> 100	> 100	> 100	> 100	> 100	> 100	> 100
CNC1=C(C)C(=O)C(=O)C([C@H](C)CCC=C(C)C)=C1O	> 100	> 48.5	> 100	> 76.1		> 94.3	98.7	56.7	> 100	> 68.6	86.3	> 100	> 100	81.9	> 100	> 100	71	> 100	20.4	> 77
